Experimental data taken from PubChem BioAssay (NCI).
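These data come from cells grown in 96-well plates and exposed to compound for 48 hours at five concentrations. TGI: concentration producing complete growth inhibition.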

What was measured:
Assay in all cases: NCI anticancer screen, dose series, 48 h
CAKI-1 renal = system: CAKI-1 renal
ACHN renal = system: ACHN renal
SNB-19 CNS = system: SNB-19 CNS
MALME-3M melanoma = system: MALME-3M melanoma
SF-539 CNS = system: SF-539 CNS
DU-145 prostate = system: DU-145 prostate
HCC-2998 colon = system: HCC-2998 colon
MDA-MB-435 = system: MDA-MB-435
COLO 205 colon = system: COLO 205 colon
SK-OV-3 ovarian = system: SK-OV-3 ovarian

SMILES | TGI (CAKI-1 renal) [µM] | TGI (ACHN renal) [µM] | TGI (SNB-19 CNS) [µM] | TGI (MALME-3M melanoma) [µM] | TGI (SF-539 CNS) [µM] | TGI (DU-145 prostate) [µM] | TGI (HCC-2998 colon) [µM] | TGI (MDA-MB-435) [µM] | TGI (COLO 205 colon) [µM] | TGI (SK-OV-3 ovarian) [µM]
O=C(/C=C/c1ccccc1O)CC(=O)/C=C/c1ccccc1O | 29.9 | 25.9 | 22.9 | 17.5 | 15.7 | > 31.6 | 15.8 | > 31.6 | – | –
Cc1cc(CC(O)(C(F)(F)F)C(F)(F)F)cc(CC(O)(C(F)(F)F)C(F)(F)F)n1 | > 100 | 8.29 | > 100 | 4.3 | 8.71 | 7.94 | 14.2 | 8.26 | 3.33 | –
CCCc1c(OC)c(O)c2c(=O)cc(OC)c3c4c(OC)cc(=O)c5c(O)c(OC)c(CCC)c(c1c23)c54 | 16.5 | 17 | 16.8 | 10.7 | 34.7 | 13.2 | 34.9 | 14.3 | 14.9 | 76.5
C/C(=C/CC[C@](C)(OC1OC(CO)C(O)C(O)C1OC1OC(C)C(O)C(O)C1O)[C@H]1CC[C@]2(C)[C@@H]1CC[C@@H]1[C@@]3(C)CC[C@H](O)C(C)(C)[C@@H]3C[C@H](O)[C@]12C)CO (stereo partly specified) | > 100 | > 100 | > 100 | > 100 | > 100 | > 100 | – | > 100 | > 100 | > 100
Clc1ccc2nc3c(c(-c4ccccc4)nn3-c3ccccc3)c(-c3ccccc3)c2c1 | – | > 100 | > 100 | > 100 | – | > 100 | > 100 | > 100 | > 100 | > 100
NC(=O)NC1=NCCC(=O)N1CCc1c[nH]c2ccccc12 | 6.54 | 65.1 | 54.6 | 36.9 | 30.9 | 52 | 44.4 | 41.1 | 27.9 | > 100
CCNc1nc2ccccc2nc1NCC | > 100 | > 100 | > 100 | > 100 | > 100 | > 100 | > 100 | > 100 | > 100 | > 100
CCOC(=O)C(NC(=O)Nc1ccccc1)(Nc1cccc(Cl)c1)C(F)(F)F (stereo unspecified) | > 100 | > 100 | > 100 | > 100 | > 100 | > 100 | > 100 | > 100 | > 100 | > 100
c1ccc2c3c(c(N4CCNCC4)nc2c1)CCCC3 | 21.9 | 27.6 | 29.2 | 37.3 | 23.2 | 28.6 | 4.15 | 24.4 | 18.9 | 42.7
Nc1c(Cl)ncnc1NCC1(CO)CCC1 | – | > 100 | – | > 100 | > 100 | > 100 | – | > 100 | > 100 | –
COc1ccc(/C=N/N=C(N)N)c(C(=O)O)c1OC | > 100 | > 100 | > 100 | – | > 100 | – | – | – | > 10 | > 100
